Reference: US6342368B1, “WD-40-derived peptides and uses thereof” (The Board of Trustees of the Leland Stanford Junior …, priority 1994, dated 2002)
“Also recorded” adds a separate entry of the source.

What was measured:
PKC [1] = test: PKC autophosphorylation; format: biochemical, rat; settings: peptide 10 μM; absence of PKC activators
Description: Rat brain PKC (˜10 nM) was incubated with mild agitation in a final volume of 250 μl of overlay buffer, as in Example 1 either with anti-βPKC pseudosubstrate antibodies (1:10 dilution, Life Technologies, Gaithersburg, Md.) or with the indicated peptide (10 μM). Where indicated, PS (50 μg/ml), DG (0.8 μg/ml) and CaCl2 (1 mM) were also added. The amount of autophosphorylation was determined after 2 hours for the reaction with the anti-pseudosubstrate antibodies, or after 15 minutes for the other samples. 50 μl of a buffer comprised of 20 mM Tris-HCl (pH 7.5), 20 mM MgCl2, 20 μM ATP and 5 μci/ml [γ-^32P]ATP. The mixture was incubated for 15 minutes at room temperature and the reaction was stopped by adding 60 μl sample buffer (see Example 9). The samples were then boiled for 10 minutes, loaded onto a 10% SDS-PAGE mini gel and electrophoresed. The gel was fixed with 50% methanol and 10% acetic acid for 1 hour, and the autophosphorylation of PKC was determined by autoradiography.
The results in FIG. 8 show PKC autophosphorylation in the presence of DG, PS, and calcium (lane 1), in the presence of EGTA (lane 2), in the presence of anti-βPKC pseudosubstrate antibodies (diluted 1:10 in 20 mM Tris-HCl; lane 3), in the presence of peptide rVI (SEQ ID NO:7; 10 μM; lane 4), in the presence of peptide I (SEQ ID NO:1; 10 μM; lane 5), or in the presence of control peptide (SEQ ID NO:9; 10 μM; lane 6).

[2] = tested on: PKC binding to recombinant RACK1; test: Overlay / overlay-extraction assay: inhibition of PKC binding to recombinant RACK1 by peptides; set-up: species or system rat
Description: The variation in the overlay protocol consisted of incubating the putative binding peptides with a mixture of PKC isozymes for 15 minutes at room temperature before the mixture was used to contact the nitrocellulose strips containing immobilized RACK1.
Nitrocellulose strips containing immobilized RACK1, that had been contacted with a solution containing a mixture of PKC isozymes, were washed and the area corresponding to the 36 kDa (RACK1-containing) band was cut out. The pieces (containing PKC/RACK1 complexes) were incubated with sample buffer for 10 minutes at 80° C. The sample buffer and the nitrocellulose pieces were then placed in wells in the PAGE gel and subjected to SDS-PAGE to elute the bound proteins. The gel was blotted onto nitrocellulose and a Western blot analysis was carried out using the mixture of antibodies (specific for PKC α, β, γ, δ, ε and ζ isozymes) described in Example 1 part B. Bound antibodies were detected by ^125I-protein A.
Peptides derived from or homologous to WD-40 repeats of RACK1 were tested for their ability to inhibit PKC binding to recombinant RACK1. Binding of PKC to RACK1 was carried out using a variation of the overlay procedure described in Example 3 part B. In the experimental samples, peptides were incubated with a solution containing a mixture of rat brain PKC isozymes (˜10 nM each) for 15 minutes at room temperature.
Following completion of the modified overlay protocol, the samples were subjected to the overlay-extraction protocol detailed in part B, above.
The results in FIG. 3 show the binding of PKC to RACK1, carried out without (lane 1) or with (lanes 2-4) a preincubation of peptides with PKC. […] Peptide I caused an 81±6% inhibition of PKC binding to recombinant RACK1 as compared with binding in the absence of added peptide (n=3). Lanes 3 and 4 show PKC binding following a preincubation with 10 μM peptide rIII (SEQ ID NO:4) and 10 μM peptide rVI (SEQ ID NO:7), respectively. […] The results shown are representative of three independent experiments.

βPKC = βPKC translocation (soluble vs particulate fraction) in Xenopus oocytes; format: cell-based; settings: peptide 50 μM microinjected; for insulin (hormone)-induced βPKC translocation: 60 min after insulin; for βPKC distribution / translocation in the absence of insulin treatment: untreated oocytes, 60 min
Description: Insulin causes the translocation of βPKC, but not other PKC isozymes, from a cytosolic form to a membrane-associated form, as evidenced by the relative levels of PKC in the soluble vs. the particulate fraction of oocyte homogenate. To assess the effects of RACK1 WD-40-derived peptides on insulin-induced PKC translocation, 50 nl of a 20 mM NaCl solution containing the indicated peptides were microinjected into Xenopus oocytes. The oocytes were then homogenized, and the relative amount of PKC in the soluble and particulate fractions was assayed. The protocol followed was a modification of a method described by Smith, et al. (1992).
Batches of 50 oocytes were microinjected with either peptide rVI (SEQ ID NO:7; 50 μM; lanes 3, 4), peptide I (SEQ ID NO:1; 50 μM, lanes 7, 8) or injection solution (NaCl 20 mM, lanes 1,2 and 5,6). Homogenates from each batch were prepared 60 minutes after microinjection (lanes 1-4) or 60 minutes after addition of insulin (lanes 5-8). The homogenates were centrifuged at 10,000 g for 3 minutes, the upper layer (containing fat and yolk) was removed, and the remainder was frozen at −70° C. Prior to use, the samples were thawed, 200 μl homogenization buffer was added and the samples were centrifuged at 100,000 g for 30 minutes at 4° C. The supernatants (soluble fraction) were removed and concentrated to 20 μl using “CENTRICON” concentrators (Amicon,Beverly, Mass.). The pellets (particulate fractions) were dissolved in 20 μl of homogenization buffer. The samples were resolved on an 8% SDS/PAGE gel and blotted onto nitrocellulose. The amount of PKC in each fraction was determined by Western blot using anti-βPKC antibodies (1:1000 dilution; Seikagaku Kogyo, Tokyo, Japan). Bound primary antibodies were detected by chemiluminescence as described in Example 3, part C.

PKC [3] = test: Histone type IIIs phosphorylation by PKC; format: biochemical; settings: absence of PS, DG and calcium; peptide 10 μM
Description: Histone type IIIs (Sigma Chemical Company, St. Louis, Mo.) was phosphorylated by PKC (˜10 nM) in the absence (lane 1) and presence of peptide rVI (10 μM) (lanes 2 and 3) and in the presence and absence of DG (0.8 μg/ml), PS (50 μg/ml) and CaCl2 (1 mM) (lane 3). The results are expressed as percentage of control that is the amount of Histone phosphorylation by PKC in the presence of DG (0.8 μg/ml), PS (50 μg/ml) and CaCl2 (1 mM). The results are the average ± SEM of two independent experiments. PKC was first incubated with the peptide rVI (10 μM) for 15 minutes in overlay buffer as described above. Histone type IIIs (40 μg/ml) was added in Tris-HCl (20 mM), MgCl2 (20 mM), ATP (20 μM) and ([γ-^32P]ATP (5 μci/ml) with or without PS (50 μg/ml), DG (0.8 μg/ml) and CaCl2 (1 mM). Histone phosphorylation was determined by autoradiography as above.

In the case of “peptide I: 15-residue peptide homologous to a sequence in the sixth WD-40 repeat of RACK1; PKC antagonist (KGDYEKILVALCGGN)”, the “induction of PKC autophosphorylation (in words)” value (PKC [1]) is reported as “No autophosphorylation; also recorded: Neither peptide I nor control peptide induced PKC autophosphorylation”, the “inhibition of PKC binding to recombinant RACK1 as compared with binding in the absence of added peptide” value ([2]; 10 μM peptide preincubated with PKC isozyme mixture 15 min, n=3) is reported as 81±6% and the “insulin (hormone)-induced βPKC translocation” value (βPKC) is reported as “inhibited hormone-induced translocation; also recorded: inhibited insulin-induced βPKC translocation”. For the same substance, the “βPKC distribution / translocation in the absence of insulin treatment” value (βPKC) was “did not affect βPKC distribution”.
“peptide rVI: eight amino acid peptide identical to a segment of RACK1 WD-40 repeat VI (DIINALCF)” was tested, and the “PKC autophosphorylation relative to that with optimal PS, DG and calcium” value (PKC [1]) was “over 80%”, the “inhibition of PKC binding to RACK1 (in words)” value ([2]; 10 μM peptide preincubated with PKC) was “inhibit the binding of PKC to RACK1” and the “induction of PKC-mediated histone phosphorylation” value (PKC [3]) was “effective to induce PKC-mediated histone phosphorylation; also recorded: induced histone phosphorylation”. For the same substance, the “insulin (hormone)-induced βPKC translocation” value (βPKC) was “augments hormone-induced translocation” and the “βPKC distribution / translocation in the absence of insulin treatment” value (βPKC) was “induced βPKC translocation”.
